“And” between values parts separate entries of the source, which are not always exact repeats. Identical values can stand only once.
Tests used:
Assay in all cases: biochemical
Design in all cases: endogenous in cells; host or cells: K562 cell extract; species or system K562 (extract); replicate k of n = 2 (each experiment ID is one independent experiment; two experiment IDs per compound)
Conditions in all cases: read-out: KDapp
PRKD3 = biological target: T1, PRKD3 (Homo sapiens, UniProt O94806)
T1 sequence (O94806 1-890): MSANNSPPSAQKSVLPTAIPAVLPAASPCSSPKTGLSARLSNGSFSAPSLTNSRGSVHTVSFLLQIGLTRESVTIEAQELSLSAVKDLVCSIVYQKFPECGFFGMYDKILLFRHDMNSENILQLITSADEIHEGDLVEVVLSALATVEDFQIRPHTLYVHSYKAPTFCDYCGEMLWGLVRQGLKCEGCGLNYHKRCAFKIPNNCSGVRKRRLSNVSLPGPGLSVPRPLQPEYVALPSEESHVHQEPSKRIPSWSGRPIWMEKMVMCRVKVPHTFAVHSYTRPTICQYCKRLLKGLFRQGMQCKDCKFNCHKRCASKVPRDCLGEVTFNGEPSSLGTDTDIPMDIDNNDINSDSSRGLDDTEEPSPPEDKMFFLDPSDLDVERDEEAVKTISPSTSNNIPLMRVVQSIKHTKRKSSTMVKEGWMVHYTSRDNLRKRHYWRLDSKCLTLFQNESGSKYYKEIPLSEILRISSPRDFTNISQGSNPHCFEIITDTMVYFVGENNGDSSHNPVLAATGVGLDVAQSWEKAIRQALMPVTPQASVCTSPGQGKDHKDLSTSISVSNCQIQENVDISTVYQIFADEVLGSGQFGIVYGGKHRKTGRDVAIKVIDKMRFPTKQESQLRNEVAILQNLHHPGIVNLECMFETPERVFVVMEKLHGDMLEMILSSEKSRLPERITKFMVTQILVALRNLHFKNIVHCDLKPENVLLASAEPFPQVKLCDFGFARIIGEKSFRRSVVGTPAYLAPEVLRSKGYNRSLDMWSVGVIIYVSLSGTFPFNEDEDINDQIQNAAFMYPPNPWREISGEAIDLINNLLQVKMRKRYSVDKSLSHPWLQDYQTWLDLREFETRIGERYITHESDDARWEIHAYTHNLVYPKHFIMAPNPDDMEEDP

PIP5K3 = PIP5K3 (Homo sapiens, UniProt Q9Y2I7)
PIP5K3, sequence (Q9Y2I7 whole entry): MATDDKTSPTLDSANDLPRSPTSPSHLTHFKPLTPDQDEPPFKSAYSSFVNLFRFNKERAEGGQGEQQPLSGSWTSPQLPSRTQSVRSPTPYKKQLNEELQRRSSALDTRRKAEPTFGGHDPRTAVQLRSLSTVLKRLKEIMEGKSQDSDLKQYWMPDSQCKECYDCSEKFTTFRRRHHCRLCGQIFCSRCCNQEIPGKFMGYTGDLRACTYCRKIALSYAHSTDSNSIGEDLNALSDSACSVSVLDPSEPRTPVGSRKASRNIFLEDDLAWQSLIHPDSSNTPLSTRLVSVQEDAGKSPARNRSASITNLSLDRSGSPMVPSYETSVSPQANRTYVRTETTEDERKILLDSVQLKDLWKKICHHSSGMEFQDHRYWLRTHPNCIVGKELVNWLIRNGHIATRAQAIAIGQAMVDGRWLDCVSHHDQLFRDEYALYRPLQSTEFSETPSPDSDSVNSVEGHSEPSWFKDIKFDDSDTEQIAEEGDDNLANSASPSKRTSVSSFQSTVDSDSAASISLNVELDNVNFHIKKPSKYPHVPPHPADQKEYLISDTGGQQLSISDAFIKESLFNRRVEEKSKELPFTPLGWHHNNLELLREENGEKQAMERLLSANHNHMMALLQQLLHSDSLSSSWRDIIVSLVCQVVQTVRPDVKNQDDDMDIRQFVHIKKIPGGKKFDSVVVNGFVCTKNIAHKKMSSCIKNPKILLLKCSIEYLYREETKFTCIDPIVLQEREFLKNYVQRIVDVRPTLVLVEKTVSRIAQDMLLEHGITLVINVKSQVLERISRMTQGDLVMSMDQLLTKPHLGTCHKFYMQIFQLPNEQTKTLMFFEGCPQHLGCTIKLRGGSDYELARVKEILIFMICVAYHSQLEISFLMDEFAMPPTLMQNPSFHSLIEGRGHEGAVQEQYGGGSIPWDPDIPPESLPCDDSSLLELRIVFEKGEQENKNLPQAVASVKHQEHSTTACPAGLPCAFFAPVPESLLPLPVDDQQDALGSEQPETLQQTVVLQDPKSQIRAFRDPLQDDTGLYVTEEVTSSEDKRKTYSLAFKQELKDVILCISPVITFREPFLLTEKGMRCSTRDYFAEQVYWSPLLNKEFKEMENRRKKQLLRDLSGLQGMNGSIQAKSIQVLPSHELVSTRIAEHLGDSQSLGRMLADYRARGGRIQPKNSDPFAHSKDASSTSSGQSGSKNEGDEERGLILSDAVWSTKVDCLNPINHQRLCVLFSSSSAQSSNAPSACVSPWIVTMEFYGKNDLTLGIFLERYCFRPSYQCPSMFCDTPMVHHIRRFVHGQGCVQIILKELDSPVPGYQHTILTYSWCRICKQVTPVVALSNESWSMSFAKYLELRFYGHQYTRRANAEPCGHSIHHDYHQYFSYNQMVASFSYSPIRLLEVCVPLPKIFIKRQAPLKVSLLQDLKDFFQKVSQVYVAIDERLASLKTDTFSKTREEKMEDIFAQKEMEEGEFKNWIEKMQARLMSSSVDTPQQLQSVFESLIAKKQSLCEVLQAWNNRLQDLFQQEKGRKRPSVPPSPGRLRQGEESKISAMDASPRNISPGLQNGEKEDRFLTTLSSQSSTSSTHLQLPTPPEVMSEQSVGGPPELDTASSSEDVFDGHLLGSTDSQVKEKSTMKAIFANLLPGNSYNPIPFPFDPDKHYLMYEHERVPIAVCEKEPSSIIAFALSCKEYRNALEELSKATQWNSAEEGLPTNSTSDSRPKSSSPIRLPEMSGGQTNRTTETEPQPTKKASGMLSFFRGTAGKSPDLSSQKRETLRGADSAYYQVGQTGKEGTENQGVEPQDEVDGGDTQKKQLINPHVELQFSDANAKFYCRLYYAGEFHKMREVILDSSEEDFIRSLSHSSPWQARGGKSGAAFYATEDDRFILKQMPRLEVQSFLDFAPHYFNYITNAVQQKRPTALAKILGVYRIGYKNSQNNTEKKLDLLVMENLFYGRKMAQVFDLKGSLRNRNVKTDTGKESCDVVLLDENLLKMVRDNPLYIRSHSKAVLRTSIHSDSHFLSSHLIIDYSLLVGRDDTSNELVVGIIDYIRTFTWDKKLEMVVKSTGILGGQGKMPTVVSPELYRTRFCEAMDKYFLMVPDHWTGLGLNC

ABL2 = ABL2 (Homo sapiens, UniProt P42684)
TNIK = TNIK (Homo sapiens, UniProt Q9UKE5)
TNIK, sequence (Q9UKE5 whole entry): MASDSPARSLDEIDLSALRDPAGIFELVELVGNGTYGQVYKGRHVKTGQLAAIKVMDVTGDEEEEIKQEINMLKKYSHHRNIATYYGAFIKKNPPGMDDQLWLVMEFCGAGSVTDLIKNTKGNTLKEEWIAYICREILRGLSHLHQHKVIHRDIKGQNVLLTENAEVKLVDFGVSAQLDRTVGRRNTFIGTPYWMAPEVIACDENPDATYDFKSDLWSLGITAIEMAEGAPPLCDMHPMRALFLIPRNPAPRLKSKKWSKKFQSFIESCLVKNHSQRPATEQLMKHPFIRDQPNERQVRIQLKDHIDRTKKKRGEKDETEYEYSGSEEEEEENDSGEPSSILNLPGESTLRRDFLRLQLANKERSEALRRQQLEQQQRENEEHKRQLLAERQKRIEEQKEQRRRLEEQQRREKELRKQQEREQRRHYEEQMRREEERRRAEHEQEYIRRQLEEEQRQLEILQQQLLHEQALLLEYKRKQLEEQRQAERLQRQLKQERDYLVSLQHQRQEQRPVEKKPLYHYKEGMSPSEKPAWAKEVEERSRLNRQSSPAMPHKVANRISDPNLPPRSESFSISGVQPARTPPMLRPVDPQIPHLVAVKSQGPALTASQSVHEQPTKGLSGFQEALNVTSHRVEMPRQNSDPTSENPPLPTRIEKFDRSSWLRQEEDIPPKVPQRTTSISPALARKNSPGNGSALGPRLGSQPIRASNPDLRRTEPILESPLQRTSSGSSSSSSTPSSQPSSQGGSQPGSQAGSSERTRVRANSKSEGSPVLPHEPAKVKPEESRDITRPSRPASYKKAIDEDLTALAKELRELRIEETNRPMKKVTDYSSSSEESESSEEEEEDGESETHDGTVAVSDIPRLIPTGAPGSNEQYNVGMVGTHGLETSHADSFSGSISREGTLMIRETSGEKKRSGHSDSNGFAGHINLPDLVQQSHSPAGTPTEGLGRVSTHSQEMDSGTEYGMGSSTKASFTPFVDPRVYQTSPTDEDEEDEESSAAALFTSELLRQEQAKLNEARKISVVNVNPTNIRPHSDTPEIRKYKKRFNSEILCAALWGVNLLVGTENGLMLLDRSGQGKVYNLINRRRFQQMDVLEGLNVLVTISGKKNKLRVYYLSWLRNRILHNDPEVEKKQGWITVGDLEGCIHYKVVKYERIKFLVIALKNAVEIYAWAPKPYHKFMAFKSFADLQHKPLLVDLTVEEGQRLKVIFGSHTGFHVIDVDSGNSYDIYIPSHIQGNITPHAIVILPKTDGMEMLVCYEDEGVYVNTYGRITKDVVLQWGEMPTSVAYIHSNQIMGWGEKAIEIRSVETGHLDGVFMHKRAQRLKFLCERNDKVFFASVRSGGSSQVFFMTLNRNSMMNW

DDR1 = DDR1 (Homo sapiens, UniProt Q08345)
DDR1, sequence (Q08345 whole entry): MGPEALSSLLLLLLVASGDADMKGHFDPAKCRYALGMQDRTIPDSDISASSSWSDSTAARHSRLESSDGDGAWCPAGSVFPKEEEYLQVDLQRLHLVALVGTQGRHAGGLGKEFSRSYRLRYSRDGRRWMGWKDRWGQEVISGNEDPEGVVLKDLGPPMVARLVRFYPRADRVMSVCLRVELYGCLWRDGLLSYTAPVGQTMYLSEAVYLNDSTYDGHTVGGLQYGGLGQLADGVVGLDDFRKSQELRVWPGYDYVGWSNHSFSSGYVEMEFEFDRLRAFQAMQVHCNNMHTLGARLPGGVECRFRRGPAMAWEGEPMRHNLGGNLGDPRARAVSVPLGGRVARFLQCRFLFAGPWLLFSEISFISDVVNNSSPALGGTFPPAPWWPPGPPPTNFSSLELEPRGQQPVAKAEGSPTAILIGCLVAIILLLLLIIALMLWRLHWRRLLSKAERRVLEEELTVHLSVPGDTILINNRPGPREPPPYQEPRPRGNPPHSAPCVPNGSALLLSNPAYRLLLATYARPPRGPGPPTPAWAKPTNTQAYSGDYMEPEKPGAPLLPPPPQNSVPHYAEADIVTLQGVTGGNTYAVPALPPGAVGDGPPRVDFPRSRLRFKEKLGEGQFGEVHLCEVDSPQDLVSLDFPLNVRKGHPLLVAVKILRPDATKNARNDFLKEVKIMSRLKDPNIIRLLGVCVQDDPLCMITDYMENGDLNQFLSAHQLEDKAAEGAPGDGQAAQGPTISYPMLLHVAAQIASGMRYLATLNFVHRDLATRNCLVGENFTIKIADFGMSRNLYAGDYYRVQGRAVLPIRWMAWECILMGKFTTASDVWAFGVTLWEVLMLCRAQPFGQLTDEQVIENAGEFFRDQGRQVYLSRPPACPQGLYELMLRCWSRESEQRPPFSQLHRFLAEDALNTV

STK11 = biological target: T2, STK11 (Homo sapiens, UniProt Q15831)
T2 sequence (Q15831 1-433): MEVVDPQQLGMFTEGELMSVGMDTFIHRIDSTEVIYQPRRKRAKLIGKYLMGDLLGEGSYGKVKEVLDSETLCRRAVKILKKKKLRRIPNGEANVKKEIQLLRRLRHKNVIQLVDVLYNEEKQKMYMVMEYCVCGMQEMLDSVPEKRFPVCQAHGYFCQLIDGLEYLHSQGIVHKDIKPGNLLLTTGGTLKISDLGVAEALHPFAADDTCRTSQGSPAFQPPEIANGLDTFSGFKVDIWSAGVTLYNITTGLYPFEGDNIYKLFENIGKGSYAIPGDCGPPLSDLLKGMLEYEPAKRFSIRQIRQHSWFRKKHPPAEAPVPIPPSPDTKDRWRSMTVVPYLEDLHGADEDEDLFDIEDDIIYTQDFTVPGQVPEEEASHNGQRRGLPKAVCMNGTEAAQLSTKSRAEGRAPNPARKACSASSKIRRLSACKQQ

SMILES | Kd (PRKD3) | Kd (PIP5K3) | Kd (ABL2) | Kd (TNIK) | Kd (DDR1) | Kd (STK11)
CN1CCN(c2ccc(Nc3ncc(C#N)c(Nc4ccccc4C(N)=O)n3)cc2)CC1.Cl [TCMDC-134116] | 166 nM | 681 nM and 785 nM | 89.8 nM and 71.9 nM | 92.2 nM and 115 nM | 326 nM and 266 nM | 894 nM
Cl.NCC1(c2nc(-c3ccc(Cl)c(O)c3)c(-c3ccncc3)[nH]2)CCCCC1 [TCMDC-141154] | 3910 nM | 524 nM | 220 nM and 180 nM | 134 nM | 977 nM | 1250 nM
CN(C)CC(O)COc1ccc(Nc2ncc([N+](=O)[O-])c(Nc3ccccc3O)n2)cc1.O=C(O)C(F)(F)F (stereo not drawn) [TCMDC-141399] | 4090 nM and 3410 nM | 3930 nM and 2770 nM | 1890 nM | 378 nM | 5970 nM | 3940 nM

Reference: paper PMC4774911, “Biochemical Screening of Five Protein Kinases from Plasmodium falciparum against 14,000 Cell-Active Compounds” (PLoS ONE, 2016)
